Data reported in patent publication US20160052926A1, “NOVEL PYRIMIDINE AND PYRIDINE COMPOUNDS AND USAGE THEREOF” (HUTCHISON MEDIPHARMA LIMITED, priority 2013, published 2016).

What was measured:
[1] = tested on: SNU-16; assay: Cellular Proliferation Assay (Cell Counting Kit-8), SNU-16; format: cell-based; conditions: Homo sapiens, SNU-16 cells, 72 hours
Experimental: (§1) Cellular Proliferation Assay
(§2) • KG-1 (ATCC Accession No. CCL-246), • SNU-16 (ATCC Accession No. CRL-5974), • RT-112 (ECACC Accession No. 85061106)
(§3) • FGFR related cancer cell proliferation is measured in 96-well plates using Cell Counting Kit-8 (Dojindo CK04-13). • Seed 30000 cells/well of KG1, 5000 cells/well of SNU16, and 1000 cells/well of RT112 in a volume of 100 μL/well in growth media. • After 24 hours, dilute the compound to 10, 3.3, 1.1, 0.37, 0.12, 0.04, 0.013, 0.004 μM, keeping the DMSO concentration at 5%. • Add 10 μL of 8-point compound series to the wells of culturing cells. • Incubate at 37° C. and 5% CO2 for 72 hours • Add 10 μL/well of CCkit8 and incubate at 37° C. and 5% CO2 for an hour • Detect the optical density of each well at 450 nm on Labsystems Multiskan K3.
(§4) • ODcompound well represents the optical density of cells treated with compound. • ODcell well represents the optical density of cells without compounds treatment. (only 0.5% DMSO) • ODcontrol well represents the optical density of culture media background
(§5) The concentration of compound providing 50% of proliferation inhibition was calculated using Excel Fit.

[2] = biological target: Recombinant human FGFR2 (Homo sapiens, UniProt P21802); assay: Transcreener Kinase Assay of FGFR2; format: biochemical; conditions: read-out: FGFR2 (FP) IC50
[3] = biological target: Recombinant human FGFR1 (Homo sapiens, UniProt P11362); assay: Transcreener Kinase Assay of FGFR1; format: biochemical; conditions: read-out: FGFR1 (FP) IC50
[4] = tested on: RT-112; assay: Cellular Proliferation Assay (Cell Counting Kit-8), RT-112; format: cell-based; conditions: Homo sapiens, RT-112 cells, 72 hours
Experimental: as §1, §2, §3, §4, §5

[5] = tested on: KG-1; assay: Cellular Proliferation Assay (Cell Counting Kit-8), KG-1; format: cell-based; conditions: Homo sapiens, KG1 cells, 72 hours
Experimental: as §1, §2, §3, §4, §5

[6] = biological target: FGFR3 kinase (Homo sapiens, UniProt P22607); assay: Z-Lyte Kinase Assay of FGFR3; format: biochemical
How it was run: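 Kinase at 0.7 μg/ml with 4 μM Z-LYTE Tyr 4 peptide and ATP diluted to 300 uM (working solution, 1.33× buffer); compounds 1–0.00046 μM, 2% DMSO final. Kinase reaction and development each 1 h at RT (25-30[…]); coumarin (445 nm) and fluorescein (520 nm) emission read, inhibition from % phosphorylation.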

Chain of FGFR3 kinase (P22607 23-806): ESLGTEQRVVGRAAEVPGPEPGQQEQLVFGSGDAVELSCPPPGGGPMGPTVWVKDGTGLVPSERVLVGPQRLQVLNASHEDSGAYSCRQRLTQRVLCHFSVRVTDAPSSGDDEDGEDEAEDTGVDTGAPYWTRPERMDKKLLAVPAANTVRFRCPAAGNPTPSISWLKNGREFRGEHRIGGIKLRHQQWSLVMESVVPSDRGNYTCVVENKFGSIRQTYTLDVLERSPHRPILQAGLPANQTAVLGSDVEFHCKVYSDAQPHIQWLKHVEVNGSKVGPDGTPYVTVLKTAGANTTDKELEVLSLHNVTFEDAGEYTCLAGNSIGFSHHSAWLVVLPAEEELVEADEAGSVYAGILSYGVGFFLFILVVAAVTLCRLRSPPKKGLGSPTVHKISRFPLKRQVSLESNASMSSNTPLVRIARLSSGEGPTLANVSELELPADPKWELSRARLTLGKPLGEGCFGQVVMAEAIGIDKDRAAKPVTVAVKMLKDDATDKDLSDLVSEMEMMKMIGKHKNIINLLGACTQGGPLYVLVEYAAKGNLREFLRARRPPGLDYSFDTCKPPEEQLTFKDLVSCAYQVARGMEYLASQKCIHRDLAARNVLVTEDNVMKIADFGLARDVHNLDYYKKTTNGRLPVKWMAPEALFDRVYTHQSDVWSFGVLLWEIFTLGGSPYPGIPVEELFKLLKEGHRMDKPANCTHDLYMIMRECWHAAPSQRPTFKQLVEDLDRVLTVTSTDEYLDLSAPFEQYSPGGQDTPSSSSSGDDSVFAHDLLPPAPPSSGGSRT
Chain of Recombinant human FGFR1 (P11362 22-822): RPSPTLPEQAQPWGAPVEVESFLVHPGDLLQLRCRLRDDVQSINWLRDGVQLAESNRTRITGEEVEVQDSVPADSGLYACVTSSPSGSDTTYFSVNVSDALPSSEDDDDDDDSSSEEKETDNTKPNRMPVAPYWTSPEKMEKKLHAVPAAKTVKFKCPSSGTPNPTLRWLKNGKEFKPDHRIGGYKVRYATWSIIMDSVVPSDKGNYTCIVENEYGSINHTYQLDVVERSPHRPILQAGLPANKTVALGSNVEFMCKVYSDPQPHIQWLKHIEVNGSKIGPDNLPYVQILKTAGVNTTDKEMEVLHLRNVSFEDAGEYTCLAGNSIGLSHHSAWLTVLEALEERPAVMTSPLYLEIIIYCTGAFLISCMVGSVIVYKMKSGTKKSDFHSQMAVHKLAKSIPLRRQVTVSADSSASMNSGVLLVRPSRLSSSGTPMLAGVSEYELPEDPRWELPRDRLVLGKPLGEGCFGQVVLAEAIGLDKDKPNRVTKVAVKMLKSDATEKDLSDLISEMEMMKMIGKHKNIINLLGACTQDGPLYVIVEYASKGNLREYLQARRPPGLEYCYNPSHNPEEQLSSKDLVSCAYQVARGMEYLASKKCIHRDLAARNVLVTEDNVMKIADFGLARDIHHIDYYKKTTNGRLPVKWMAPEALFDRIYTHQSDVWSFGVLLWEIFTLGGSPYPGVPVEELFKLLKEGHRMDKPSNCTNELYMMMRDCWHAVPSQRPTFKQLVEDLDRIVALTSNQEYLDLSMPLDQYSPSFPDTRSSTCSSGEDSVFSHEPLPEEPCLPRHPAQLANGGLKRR
Chain of Recombinant human FGFR2 (P21802 22-821): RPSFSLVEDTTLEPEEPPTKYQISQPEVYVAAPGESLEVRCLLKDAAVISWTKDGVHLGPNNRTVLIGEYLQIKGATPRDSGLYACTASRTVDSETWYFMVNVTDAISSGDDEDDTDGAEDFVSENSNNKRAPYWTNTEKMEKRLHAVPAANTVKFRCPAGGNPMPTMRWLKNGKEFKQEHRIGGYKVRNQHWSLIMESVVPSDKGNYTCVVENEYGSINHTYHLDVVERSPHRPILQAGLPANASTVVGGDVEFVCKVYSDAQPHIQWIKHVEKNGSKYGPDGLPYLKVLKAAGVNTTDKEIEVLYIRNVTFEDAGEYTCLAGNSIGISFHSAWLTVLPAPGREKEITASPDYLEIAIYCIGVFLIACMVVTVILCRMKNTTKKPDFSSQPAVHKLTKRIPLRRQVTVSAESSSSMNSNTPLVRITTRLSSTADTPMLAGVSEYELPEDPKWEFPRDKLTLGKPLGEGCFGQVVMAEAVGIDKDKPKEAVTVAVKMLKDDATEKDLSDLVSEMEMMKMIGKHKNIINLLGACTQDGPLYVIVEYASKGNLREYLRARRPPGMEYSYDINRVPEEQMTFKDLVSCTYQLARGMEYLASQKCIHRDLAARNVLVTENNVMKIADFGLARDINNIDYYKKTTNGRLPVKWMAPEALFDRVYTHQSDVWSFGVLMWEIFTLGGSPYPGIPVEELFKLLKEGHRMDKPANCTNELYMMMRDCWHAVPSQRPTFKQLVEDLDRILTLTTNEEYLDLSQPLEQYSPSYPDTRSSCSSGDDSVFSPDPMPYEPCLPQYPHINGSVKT

SMILES | IC50 [1] [nM] | IC50 [2] [nM] | IC50 [3] [nM] | IC50 [6] [nM] | IC50 [4] [nM] | IC50 [5] [nM]
CNC(=O)c1cc(CCc2cnc(Nc3ccc(N4CCOCC4)cc3)nc2)c(F)c(OC)c1 [Compound 11] | 28 | 9 | 18 | 7 | 34 | 40
CNC(=O)c1cc(CCc2cnc(Nc3ccc(N4C[C@@H](C)N[C@@H](C)C4)cc3)nc2)c(F)c(OC)c1 [Compound 21, 3-(2-(2-((4-((3R,5S)-3,5-dimethylpiperazin-1-yl)phenyl)amino)pyrimidin-5-yl)ethyl)-4-fluoro-5-methoxy-N-methylbenzamide] | 16 | 6 | 9 | 14 | 52 | 40
CONC(=O)c1cc(CCc2cnc(Nc3ccccc3)nc2)cc(OC)c1 [Compound 22] | 26 | 5 | 9 | 20 | 84 | 28
CNC(=O)c1cc(CCc2cnc(Nc3ccc(OC)nc3)nc2)c(F)c(OC)c1 [Compound 30] | 68 | 10 | 29 | 40 | 241 | 55
CNC(=O)c1cc(CCc2cnc(Nc3ccc4c(c3)OCO4)nc2)c(F)c(OC)c1 [Compound 31] | 236 | 23 | 42 | 287 | 491 | 178
CNC(=O)c1cc(CCc2cnc(Nc3ccc4nc(C)oc4c3)nc2)c(F)c(OC)c1 [Compound 34] | 58 | 13 | 33 | 46 | 308 | 132
CNC(=O)c1cc(CCc2cnc(Nc3ccc(-n4cccn4)cc3)nc2)c(F)c(OC)c1 [Compound 35] | 157 | 9 | 30 | 83 | 455 | 189

More lines, main results first:

IC50 [1] [nM] | IC50 [2] [nM] | IC50 [3] [nM] | IC50 [6] [nM] | SMILES | IC50 [4] [nM] | IC50 [5] [nM]
22 | 5 | 25 | 8 | CNC(=O)c1cc(CCc2cnc(Nc3cnn(C4CCC4)c3)nc2)c(F)c(OC)c1 [Compound 10] | 29 | 18
21 | 10 | 29 | 7 | CCN(CC)CCCn1cc(Nc2ncc(CCc3cc(C(=O)NC)cc(OC)c3F)cn2)cn1 [Compound 13] | 59 | 498
23 | 8 | 15 | 30 | CNC(=O)c1cc(CCc2cnc(Nc3cnn(C)c3)nc2)c(F)c(OC)c1 [Compound 25] | 218 | 39
29 | 12 | 20 | 27 | CNC(=O)c1cc(CCc2cnc(Nc3ccc(C)nc3)nc2)c(F)c(OC)c1 [Compound 26] | 93 | 48
293 | 42 | 256 | 21 | CCn1cc(Nc2ncc(CCc3cc(OC)cc(C(=O)NC)c3F)cn2)cn1 [Compound 27] | 402 | 340
30 | 6 | 18 | 5 | CNC(=O)c1cc(CCc2cnc(Nc3cnn(C[C@H](C)O)c3)nc2)c(F)c(OC)c1 [Compound 32] | 104 | 57
19 | 7 | 22 | 17 | CNC(=O)c1cc(CCc2cnc(Nc3cnn(C[C@@H](C)O)c3)nc2)c(F)c(OC)c1 [Compound 33] | 135 | 47
29 | 616 | 21 | 31 | CNC(=O)c1cc(CCc2cnc(Nc3cnn(CC(F)(F)F)c3)nc2)c(F)c(OC)c1 [Compound 36] | 160 | 52
